Assay: Inhibition of Hepatitis C virus protease
Design: species or system Hepacivirus hominis

An IC50 of 35 µM was found for `CC1Cc2cccc(O)c2C(=O)O1` (stereo unspecified) [MELLEIN] in this work.

— ChEMBL document CHEMBL2380207, “Recent advances in natural products from plants for treatment of liver diseases” (Eur J Med Chem, 2013)
